“And” between values parts separate entries of the source, which are not always exact repeats. Equal values may be shown once. Inconclusive results and toxic doses are left out. Cut-off read from the data, not from the text of the source: active = T/C of 150% or more; inactive = T/C below 125%.
Tested on: L1210 leukemia ip in BDF1 mice, survival T/C
Assay: NCI In Vivo Anticancer Drug Screen. Data for tumor model L1210 Leukemia (intraperitoneal) in B6D2F1 (BDF1) mice
Conditions: endpoint: mean survival time, higher = longer survival
Method in brief: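 In this screen, tumor-bearing mice given compound are compared to those given vehicle, and their survival values are reported as a treated-to-control quotient.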

[1] = dose: 25.0 mg/kg/injection, schedule: Q04DX002 (ip), vehicle: Klucel (hydroxypropylcellulose) (HPC)
[2] = dose: 50.0 mg/kg/injection, schedule: Q04DX002 (ip), vehicle: Klucel (hydroxypropylcellulose) (HPC)
[3] = dose: 100.0 mg/kg/injection, schedule: Q04DX002 (ip), vehicle: Klucel (hydroxypropylcellulose) (HPC)
[4] = dose: 100.0 mg/kg/injection, schedule: Q01DX009 (ip), vehicle: saline
[5] = dose: 100.0 mg/kg/injection, schedule: Q04DX003 (ip), vehicle: saline
[6] = dose: 200.0 mg/kg/injection, schedule: Q01DX009 (ip), vehicle: saline
[7] = dose: 200.0 mg/kg/injection, schedule: Q04DX003 (ip), vehicle: saline
[8] = dose: 400.0 mg/kg/injection, schedule: Q04DX003 (ip), vehicle: saline
[9] = dose: 100.0 mg/kg/injection, schedule: Q01DX001 (ip), vehicle: saline with Tween-80
[10] = dose: 100.0 mg/kg/injection, schedule: Q01DX009 (ip), vehicle: Klucel (hydroxypropylcellulose) (HPC)
[11] = dose: 200.0 mg/kg/injection, schedule: Q01DX009 (ip), vehicle: Klucel (hydroxypropylcellulose) (HPC)
[12] = dose: 400.0 mg/kg/injection, schedule: Q01DX009 (ip), vehicle: Klucel (hydroxypropylcellulose) (HPC)
[13] = dose: 100.0 mg/kg/injection, schedule: Q01DX001 (ip), vehicle: saline
[14] = dose: 200.0 mg/kg/injection, schedule: Q01DX001 (ip), vehicle: saline
[15] = dose: 100.0 mg/kg/injection, schedule: Q04DX003 (ip), vehicle: saline with Tween-80
[16] = dose: 200.0 mg/kg/injection, schedule: Q04DX003 (ip), vehicle: saline with Tween-80
[17] = dose: 400.0 mg/kg/injection, schedule: Q04DX003 (ip), vehicle: saline with Tween-80
[18] = dose: 50.0 mg/kg/injection, schedule: Q01DX009 (ip), vehicle: saline with Tween-80
[19] = dose: 100.0 mg/kg/injection, schedule: Q01DX009 (ip), vehicle: saline with Tween-80
[20] = dose: 100.0 mg/kg/injection, schedule: Q04DX003 (ip), vehicle: Klucel (hydroxypropylcellulose) (HPC)
[21] = dose: 200.0 mg/kg/injection, schedule: Q04DX003 (ip), vehicle: Klucel (hydroxypropylcellulose) (HPC)
[22] = dose: 400.0 mg/kg/injection, schedule: Q04DX003 (ip), vehicle: Klucel (hydroxypropylcellulose) (HPC)
[23] = dose: 100.0 mg/kg/injection, schedule: Q01DX001 (ip), vehicle: carboxymethylcellulose (CMC)
[24] = dose: 200.0 mg/kg/injection, schedule: Q01DX001 (ip), vehicle: carboxymethylcellulose (CMC)
[25] = dose: 400.0 mg/kg/injection, schedule: Q01DX001 (ip), vehicle: carboxymethylcellulose (CMC)
[26] = dose: 100.0 mg/kg/injection, schedule: Q01DX001 (ip), vehicle: Klucel (hydroxypropylcellulose) (HPC)
[27] = dose: 200.0 mg/kg/injection, schedule: Q01DX001 (ip), vehicle: Klucel (hydroxypropylcellulose) (HPC)
[28] = dose: 400.0 mg/kg/injection, schedule: Q01DX001 (ip), vehicle: Klucel (hydroxypropylcellulose) (HPC)
[29] = dose: 50.0 mg/kg/injection, schedule: Q01DX009 (ip), vehicle: Klucel (hydroxypropylcellulose) (HPC)

Measured: T/C

COc1ccccc1/C=C/C(=O)O
inactive: [1] 98 % of control | [2] 100 % of control | [3] 88 % of control

CC1(C)NC(=O)N(CCCl)C1=O
inactive: dose: 50.0 mg/kg/injection, schedule: Q04DX003 (ip), vehicle: saline 97 % of control | [4] 96 % of control | [5] 92 % of control | [6] 96 % of control | [7] 97 % of control | dose: 400.0 mg/kg/injection, schedule: Q01DX009 (ip), vehicle: saline 98 % of control | [8] 103 % of control

CN(CC(O)CN)c1ccc(Cl)cc1 (stereo not given)
inactive: dose: 25.0 mg/kg/injection, schedule: Q01DX001 (ip), vehicle: saline with Tween-80 104 % of control | dose: 50.0 mg/kg/injection, schedule: Q01DX001 (ip), vehicle: saline with Tween-80 101 % of control | [9] 100 % of control and 103 % of control

COc1cc(OC)c(NC(=O)c2c(Br)c(Br)c(Br)c(Br)c2C(=O)O)cc1Cl
inactive: [10] 107 % of control | [11] 94 % of control | [12] 95 % of control

c1ccc2cc3cc4cc5ccccc5cc4cc3cc2c1
inactive: dose: 50.0 mg/kg/injection, schedule: Q01DX009 (ip), vehicle: saline 97 % of control | [4] 101 % of control | [6] 101 % of control

CN(C(=O)c1cc([N+](=O)[O-])ccc1O)c1ccc([N+](=O)[O-])cc1
inactive: [13] 97 % of control | [14] 95 % of control | dose: 400.0 mg/kg/injection, schedule: Q01DX001 (ip), vehicle: saline 97 % of control

C1CC2C3CCC(C3)C2C1 (stereo not given)
inactive: [15] 94 % of control | [16] 90 % of control | [17] 97 % of control

N#Cc1ncc(C(Cl)(Cl)Cl)nc1Cl
inactive: dose: 25.0 mg/kg/injection, schedule: Q01DX009 (ip), vehicle: saline with Tween-80 103 % of control | dose: 25.0 mg/kg/injection, schedule: Q04DX003 (ip), vehicle: saline with Tween-80 100 % of control | [18] 105 % of control | dose: 50.0 mg/kg/injection, schedule: Q04DX003 (ip), vehicle: saline with Tween-80 100 % of control | [19] 105 % of control and 108 % of control | [15] 106 % of control | dose: 200.0 mg/kg/injection, schedule: Q01DX009 (ip), vehicle: saline with Tween-80 103 % of control | dose: 400.0 mg/kg/injection, schedule: Q01DX009 (ip), vehicle: saline with Tween-80 110 % of control

COC(=O)c1ccc(Cl)c(NN)c1
inactive: [15] 100 % of control | [16] 100 % of control | [17] 105 % of control

CCCCCCCC[Se](=O)O
inactive: dose: 5.0 mg/kg/injection, schedule: Q01DX001 (ip), vehicle: carboxymethylcellulose (CMC) 95 % of control | dose: 10.0 mg/kg/injection, schedule: Q01DX001 (ip), vehicle: carboxymethylcellulose (CMC) 109 % of control | dose: 20.0 mg/kg/injection, schedule: Q01DX001 (ip), vehicle: carboxymethylcellulose (CMC) 109 % of control

O=C(O)c1ccccc1C(=O)c1ccc(Br)cc1
inactive: [20] 93 % of control | [21] 96 % of control | [22] 104 % of control

O=C(O)CNC(=O)CNC(=O)C(Br)Cc1ccccc1 (stereo not given)
inactive: [10] 98 % of control | [15] 101 % of control | [11] 88 % of control | [16] 95 % of control | [17] 100 % of control

CCOC(=O)c1nn2c(C)nnc2s1
inactive: [23] 98 % of control | [24] 96 % of control | [25] 98 % of control

CCCCCCCCCCCCCCCC(=O)OCC1OC(CO)(OC2OC(CO)C(O)C(O)C2O)C(O)C1O (stereo not given)
inactive: [10] 91 % of control | [20] 89 % of control | [11] 94 % of control | [21] 91 % of control | [22] 98 % of control

COC(=O)c1cccc(OC)c1-c1c(OC)cccc1C(=O)OC
inactive: [26] 105 % of control | [27] 103 % of control | [28] 102 % of control

Cc1c(N2CCCCC2)[nH]c2ccccc12
inactive: [10] 87 % of control | [20] 96 % of control | [21] 95 % of control | [22] 88 % of control

O=C(Nc1cccc(C(=O)O)c1)Nc1ccccc1F
inactive: [29] 93 % of control | [10] 107 % of control | [11] 93 % of control

O=C(NCCCl)NCC1CCCO1 (stereo not given)
inactive: dose: 50.0 mg/kg/injection, schedule: Q04DX003 (ip), vehicle: Klucel (hydroxypropylcellulose) (HPC) 103 % of control | [20] 103 % of control | [21] 103 % of control | [22] 90 % of control

CCC(Cl)COP(=O)(OCC(Cl)CC)C(CC)P(=O)(OCC(Cl)CC)OCC(Cl)CC (stereo not given)
inactive: [5] 91 % of control | [7] 95 % of control | [8] 93 % of control

NC(C(=O)O)c1ccccc1Cl (stereo not given)
inactive: [29] 95 % of control | [26] 92 % of control | [10] 101 % of control | [27] 102 % of control | [11] 107 % of control | [28] 91 % of control

N#CC(C#N)=Cc1ccc([N+](=O)[O-])s1
inactive: dose: 12.5 mg/kg/injection, schedule: Q04DX002 (ip), vehicle: Klucel (hydroxypropylcellulose) (HPC) 96 % of control | [1] 100 % of control

CCCCOC(=O)CCCCC(=O)OCCCC
inactive: [10] 104 % of control | [11] 100 % of control | [12] 95 % of control

O=S(=O)(OCC1CO1)c1ccc(Cl)cc1 (stereo not given)
inactive: dose: 100.0 mg/kg/injection, schedule: Q01DX008 (ip), vehicle: Klucel (hydroxypropylcellulose) (HPC) 101 % of control | dose: 200.0 mg/kg/injection, schedule: Q01DX008 (ip), vehicle: Klucel (hydroxypropylcellulose) (HPC) 108 % of control | dose: 400.0 mg/kg/injection, schedule: Q01DX008 (ip), vehicle: Klucel (hydroxypropylcellulose) (HPC) 108 % of control

CS(=O)(=O)N1CC(O)CN(S(C)(=O)=O)CC(O)C1 (stereo not given)
inactive: [1] 100 % of control | [2] 100 % of control | [3] 110 % of control

CCC1(O)C(=O)OCc2c1cc1n(c2=O)CCC1 (stereo not given)
inactive: dose: 12.5 mg/kg/injection, schedule: Q01DX001 (ip), vehicle: saline 113 % of control | dose: 25.0 mg/kg/injection, schedule: Q01DX001 (ip), vehicle: saline 106 % of control and 110 % of control | dose: 50.0 mg/kg/injection, schedule: Q01DX001 (ip), vehicle: saline 102 % of control | [13] 101 % of control | [14] 98 % of control

O=C(O)CCCc1ccccc1
inactive: dose: 50.0 mg/kg/injection, schedule: Q01DX001 (ip), vehicle: carboxymethylcellulose (CMC) 94 % of control | [23] 108 % of control | dose: 100.0 mg/kg/injection, schedule: Q04DX002 (ip), vehicle: saline with Tween-80 98 % of control | [24] 96 % of control | dose: 200.0 mg/kg/injection, schedule: Q04DX002 (ip), vehicle: saline with Tween-80 91 % of control | [25] 107 % of control | dose: 400.0 mg/kg/injection, schedule: Q04DX002 (ip), vehicle: saline with Tween-80 109 % of control

C=Cc1ccc(Oc2ccccc2)cc1
inactive: [18] 98 % of control | [19] 112 % of control

Cc1cc2oc(/C=N/O)c(C)c2cc1C
inactive: [10] 99 % of control | [11] 96 % of control | [12] 90 % of control

CC(=O)NC1C(C)OC2COC(C)(C)OC2C1C (stereo not given)
inactive: [9] 100 % of control | dose: 200.0 mg/kg/injection, schedule: Q01DX001 (ip), vehicle: saline with Tween-80 100 % of control | dose: 400.0 mg/kg/injection, schedule: Q01DX001 (ip), vehicle: saline with Tween-80 104 % of control

O=C(NOCc1cc2c(cc1Cl)OCO2)c1ccc(S(=O)(=O)F)cc1
inactive: dose: 100.0 mg/kg/injection, schedule: Q04DX003 (ip), vehicle: saline sonified 95 % of control
